Counter-ions that a name gives are not always drawn.
Target: T1, glucokinase (GK) (Homo sapiens, UniProt P35557)
T1 construct: I.D. No. 1 corresponds to residues 12-465 of glucokinase; made in house; host or cells: E. coli DH10b-T1r
T1 sequence (P35557 with tags, fused parts or gaps isoform P35557-2): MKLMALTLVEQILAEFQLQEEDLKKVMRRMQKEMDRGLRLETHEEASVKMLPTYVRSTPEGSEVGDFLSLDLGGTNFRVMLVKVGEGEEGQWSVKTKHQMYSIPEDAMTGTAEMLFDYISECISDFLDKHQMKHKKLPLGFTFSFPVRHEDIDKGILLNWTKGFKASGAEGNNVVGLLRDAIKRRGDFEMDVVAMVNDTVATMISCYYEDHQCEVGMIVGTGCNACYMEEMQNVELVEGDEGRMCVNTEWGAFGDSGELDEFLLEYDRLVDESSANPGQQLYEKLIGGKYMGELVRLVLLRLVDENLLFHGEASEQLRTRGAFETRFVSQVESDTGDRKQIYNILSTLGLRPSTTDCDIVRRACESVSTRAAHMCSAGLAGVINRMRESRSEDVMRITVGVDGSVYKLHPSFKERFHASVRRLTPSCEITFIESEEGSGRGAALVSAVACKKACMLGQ
Assay: enzymatic glucokinase activity assay (ATP consumption, KinaseGlo luminescence)
Type: biochemical
Conditions: recombinant GK residues 12-465; 5 μM ATP, 5 mM Glucose; Kact = concentration that displays 50% of the maximal increase in GK activity; read-out: pKact
How it was run: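 Recombinant human glucokinase expressed in E. coli was run in 25 mM Hepes pH 7.2 with 10 mM MgCl2, 1 mM DTT, 5 μM ATP, 5 mM glucose and 2% DMSO for 60 min at room temperature. Remaining ATP was read by KinaseGlo luminescence; pKact came from non-linear curve fits.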

Compound	EC50
COc1ccc2nc(NC(=O)[C@@H](CC3CCOCC3)n3c(C)cc(S(=O)(=O)c4ccoc4C)cc3=O)sc2n1 [Example 63, (R)-N-(5-methoxythiazolo[5,4-b]pyridin-2-yl)-2-(6-methyl-4-(2-methylfuran-3-ylsulfonyl)-2-oxopyridin-1(2H)-yl)-3-(tetrahydro-2H-pyran-4-yl)propanamide]	> 15.8 µM
O=C(Nc1nc2cccnc2s1)[C@H](CC1CCOCC1)n1ccc(S(=O)(=O)C2CC2)cc1=O [Example 52, (S)-2-(4-(cyclopropylsulfonyl)-2-oxopyridin-1(2H)-yl)-3-(tetrahydro-2H-pyran-4-yl)-N-(thiazolo[5,4-b]pyridin-2-yl)propanamide]	1.58 to 15.8 µM
COc1ccc2nc(NC(=O)C(CC3CCCCC3)n3ccc(S(=O)(=O)C4CC4)cc3=O)sc2n1 (stereo not shown) [Example 68, 3-cyclohexyl-2-(4-(cyclopropylsulfonyl)-2-oxopyridin-1(2H)-yl)-N-(5-methoxythiazolo[5,4-b]pyridin-2-yl)propanamide]	< 1.58 µM
COc1ccc2nc(NC(=O)[C@@H](CC3CCOCC3)n3ccc(S(=O)(=O)CCCO)cc3=O)sc2n1 [Example 71, (R)-2-(4-(3-hydroxypropylsulfonyl)-2-oxopyridin-1(2H)-yl)-N-(5-methoxythiazolo[5,4-b]pyridin-2-yl)-3-(tetrahydro-2H-pyran-4-yl)propanamide]	> 15.8 µM
Cc1cc(S(=O)(=O)C2CCCC2)cc(=O)n1[C@H](CC1CCOCC1)C(=O)Nc1ncc(Cl)s1 [Example 37, (R)-N-(5-chlorothiazol-2-yl)-2-(4-(cyclopentylsulfonyl)-6-methyl-2-oxopyridin-1(2H)-yl)-3-(tetrahydro-2H-pyran-4-yl)propanamide]	1.58 to 15.8 µM
CS(=O)(=O)c1ccn([C@@H](CC2CCOCC2)C(=O)Nc2ncc(Cl)s2)c(=O)c1 [Example 23, (S)-N-(5-chlorothiazol-2-yl)-2-(4-(methylsulfonyl)-2-oxopyridin-1(2H)-yl)-3-(tetrahydro-2H-pyran-4-yl)propanamide]	1.58 to 15.8 µM
Cc1cc(S(=O)(=O)c2cccs2)cc(=O)n1C(CC1CCCCC1)C(=O)Nc1ncc(Cl)s1 (stereo not shown) [Example 60, N-(5-chlorothiazol-2-yl)-3-cyclohexyl-2-(6-methyl-2-oxo-4-(thiophen-2-ylsulfonyl)pyridin-1(2H)-yl)propanamide]	< 1.58 µM
COc1ccc2nc(NC(=O)[C@H](CC3CCOCC3)n3c(C)cc(S(=O)(=O)c4ccoc4C)cc3=O)sc2n1 [Example 62, (S)-N-(5-methoxythiazolo[5,4-b]pyridin-2-yl)-2-(6-methyl-4-(2-methylfuran-3-ylsulfonyl)-2-oxopyridin-1(2H)-yl)-3-(tetrahydro-2H-pyran-4-yl)propanamide]	1.58 to 15.8 µM
Cc1cc(S(=O)(=O)C2CCCC2)cc(=O)n1C(CC1CCCCC1)C(=O)Nc1nccs1 (stereo not shown) [Example 5, 3-cyclohexyl-2-(4-(cyclopentylsulfonyl)-6-methyl-2-oxopyridin-1(2H)-yl)-N-(thiazol-2-yl)propanamide trifluoroacetic acid salt]	< 1.58 µM
Cc1cc(S(=O)(=O)C2CCCC2)cc(=O)n1[C@@H](CC1CCOCC1)C(=O)Nc1ncc(F)s1 [Example 40, (S)-2-(4-(cyclopentylsulfonyl)-6-methyl-2-oxopyridin-1(2H)-yl)-N-(5-fluorothiazol-2-yl)-3-(tetrahydro-2H-pyran-4-yl)propanamide]	< 1.58 µM
Cc1cc(S(=O)(=O)C2CCCC2)cc(=O)n1C(CC1CCCCC1)C(=O)Nc1ccc(C(N)=O)cn1 (stereo not shown) [Example 6, 6-(3-cyclohexyl-2-(4-(cyclopentylsulfonyl)-6-methyl-2-oxopyridin-1(2H)-yl)propanamido)nicotinamide trifluoroacetic acid salt]	< 1.58 µM
O=C(Nc1ncc(Cl)s1)[C@H](CC1CCOCC1)n1ccc(S(=O)(=O)C2CC2)cc1=O [Example 30, (S)-N-(5-chlorothiazol-2-yl)-2-(4-(cyclopropylsulfonyl)-2-oxopyridin-1(2H)-yl)-3-(tetrahydro-2H-pyran-4-yl)propanamide]	< 1.58 µM
CC#CCC(C(=O)Nc1ncc(Cl)s1)n1ccc(S(C)(=O)=O)cc1=O (stereo not shown) [Example 26, N-(5-chlorothiazol-2-yl)-2-(4-(methylsulfonyl)-2-oxopyridin-1(2H)-yl)hex-4-ynamide]	> 15.8 µM
Cc1cc(S(=O)(=O)C2CCCC2)cc(=O)n1C(Cc1ccco1)C(=O)Nc1nccs1 (stereo not shown) [Example 21, 2-(4-(cyclopentylsulfonyl)-6-methyl-2-oxopyridin-1(2H)-yl)-3-(furan-2-yl)-N-(thiazol-2-yl)propanamide]	> 15.8 µM

Continued, values first:

EC50	Compound
> 15.8 µM	Cc1cc(-c2ccc(S(C)(=O)=O)cc2)cc(=O)n1[C@@H](CC1CCCCC1)C(=O)Nc1nccs1 [Example 101, (S)-3-cyclohexyl-2-(6-methyl-4-(4-(methylsulfonyl)phenyl)-2-oxopyridin-1(2H)-yl)-N-(thiazol-2-yl)propanamide]
1.58 to 15.8 µM	COc1ccc2nc(NC(=O)[C@@H](CC3CCCCC3)n3c(C)cc(S(=O)(=O)C4CC4)cc3=O)sc2n1 [Example 122, (R)-3-cyclohexyl-2-(4-(cyclopropylsulfonyl)-6-methyl-2-oxopyridin-1(2H)-yl)-N-(5-methoxythiazolo[5,4-b]pyridin-2-yl)propanamide]
> 15.8 µM	Cc1cc(S(=O)(=O)C2CCS(=O)(=O)CC2)cc(=O)n1[C@H](CC1CCCCC1)C(=O)Nc1ncc(Cl)s1 [Example 188, (R)-N-(5-chlorothiazol-2-yl)-2-(4-(1,1-dioxotetrahydrothiopyran-4-ylsulfonyl)-6-methyl-2-oxopyridin-1(2H)-yl)-3-cyclohexylpropanamide]
> 15.8 µM	Cc1cc(-c2cc3ccccc3o2)cc(=O)n1[C@@H](CC1CCCCC1)C(=O)Nc1nccs1 [Example 104, (S)-2-(4-(benzofuran-2-yl)-6-methyl-2-oxopyridin-1(2H)-yl)-3-cyclohexyl-N-(thiazol-2-yl)propanamide]
> 15.8 µM	Cc1cc(-c2ccc(Cl)cc2)cc(=O)n1[C@@H](CC1CCCCC1)C(=O)Nc1nccs1 [Example 93, (S)-2-(4-(4-chlorophenyl)-6-methyl-2-oxopyridin-1(2H)-yl)-3-cyclohexyl-N-(thiazol-2-yl)propanamide]
> 15.8 µM	Cc1cc(-c2cn[nH]c2)cc(=O)n1[C@@H](CC1CCCCC1)C(=O)Nc1nccs1 [Example 113, (S)-3-cyclohexyl-2-(6-methyl-2-oxo-4-(1H-pyrazol-4-yl)pyridin-1(2H)-yl)-N-(thiazol-2-yl)propanamide]
> 15.8 µM	Cc1cc(C#CCO)cc(=O)n1[C@H](CC1CCOCC1)C(=O)Nc1ncc(Cl)s1 (stereo in doubt) [Example 137, N-(5-chlorothiazol-2-yl)-2-(4-(3-hydroxyprop-1-ynyl)-6-methyl-2-oxopyridin-1(2H)-yl)-3-(tetrahydro-2H-pyran-4-yl)propanamide]
1.58 to 15.8 µM	Cc1cc(-c2ccc(C#N)cc2)cc(=O)n1[C@@H](CC1CCCCC1)C(=O)Nc1nccs1 [Example 98, (S)-2-(4-(4-cyanophenyl)-6-methyl-2-oxopyridin-1(2H)-yl)-3-cyclohexyl-N-(thiazol-2-yl)propanamide]
1.58 to 15.8 µM	COCCC(C)(C)S(=O)(=O)c1ccn(C(CC2CCOCC2)C(=O)Nc2nc3ccc(OC)nc3s2)c(=O)c1 (stereo not shown) [Example 88, 2-(4-(4-methoxy-2-methylbutan-2-ylsulfonyl)-2-oxopyridin-1(2H)-yl)-N-(5-methoxythiazolo[5,4-b]pyridin-2-yl)-3-(tetrahydro-2H-pyran-4-yl)propanamide]
< 1.58 µM	Cc1cc(S(=O)(=O)C2CC2)cc(=O)n1C(CC1CCCC1)C(=O)Nc1ncc(Cl)s1 (stereo not shown) [Example 178, N-(5-chlorothiazol-2-yl)-3-cyclopentyl-2-(4-(cyclopropylsulfonyl)-6-methyl-2-oxopyridin-1(2H)-yl)propanamide]
< 1.58 µM	Cc1cc(S(=O)(=O)Cc2ccco2)cc(=O)n1[C@@H](CC1CCOCC1)C(=O)Nc1ncc(Cl)s1 [Example 141, (S)-N-(5-chlorothiazol-2-yl)-2-(4-(furan-2-ylmethylsulfonyl)-6-methyl-2-oxopyridin-1(2H)-yl)-3-(tetrahydro-2H-pyran-4-yl)propanamide]
< 1.58 µM	Cc1cc(S(=O)(=O)C2CC2)cc(=O)n1[C@@H](CC1CCCC1)C(=O)Nc1ncc(Cl)s1 [Example 183, (S)-N-(5-chlorothiazol-2-yl)-3-cyclopentyl-2-(4-(cyclopropylsulfonyl)-6-methyl-2-oxopyridin-1(2H)-yl)propanamide]
> 15.8 µM	Cc1cc(S(=O)(=O)C2CCCC2)cc(=O)n1[C@H](CC1CCOCC1)C(=O)Nc1ccc(F)cn1 [Example 164, (R)-2-(4-(cyclopentylsulfonyl)-6-methyl-2-oxopyridin-1(2H)-yl)-N-(5-fluoropyridin-2-yl)-3-(tetrahydro-2H-pyran-4-yl)propanamide]
1.58 to 15.8 µM	COc1ccc2nc(NC(=O)[C@@H](CC3CCCCC3)n3ccc(S(=O)(=O)C4CC4)cc3=O)sc2n1 [Example 75, (R)-3-cyclohexyl-2-(4-(cyclopropylsulfonyl)-2-oxopyridin-1(2H)-yl)-N-(5-methoxythiazolo[5,4-b]pyridin-2-yl)propanamide]

— patent US8163779B2, “Glucokinase activators” (Takeda San Diego, Inc., priority 2006, dated 2012)
